In patent US20250304620A1, “ANTIMICROBIAL PEPTIDE AND APPLICATION THEREOF” (priority 2023, published 2025):
Converted amounts (≈) assume the structure as drawn. Marks after values point to notes of the source that are not given here. Non-standard residues stand in square brackets, D forms with d. Residues, ends and D or L forms follow the SMILES beside them. dPhe(3,4-Cl2) = N[C@H](Cc1ccc(Cl)c(Cl)c1)C(=O)O; dPhe(4-CF3) = N[C@H](Cc1ccc(C(F)(F)F)cc1)C(=O)O; dPhe(4-Br) = N[C@H](Cc1ccc(Br)cc1)C(=O)O

Experiments:
[1] = tested on: Enterococcus ATCC 29212; format: cell-based
Summary of the method: (§1)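 Five parallel repeats; twofold dilution series of each peptide per US CLSI susceptibility protocol; endpoint = MIC.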

[2] = tested on: Pseudomonas aeruginosa ATCC 27853; format: cell-based
Summary of the method: as §1

[3] = tested on: Corynebacterium ATCC 7715; format: cell-based
Summary of the method: as §1

[4] = tested on: Candida utilis ATCC 9950; format: cell-based
Summary of the method: as §1

[5] = tested on: Staphylococcus aureus ATCC 25923; format: cell-based
Summary of the method: as §1

[6] = tested on: Trichophyton ATCC MYA-4438; format: cell-based
Summary of the method: as §1

[7] = tested on: Candida glabrata ATCC 15126; format: cell-based
Summary of the method: as §1

[8] = tested on: Candida krusei ATCC 6258; format: cell-based
Summary of the method: as §1

[9] = tested on: Salmonella typhimurium ATCC 14028; format: cell-based
Summary of the method: as §1

[10] = tested on: Bacillus subtilis ATCC 6633; format: cell-based
Summary of the method: as §1

[11] = tested on: Serratia marcescens ATCC 29021; format: cell-based
Summary of the method: as §1

[12] = tested on: Candida tropicalis ATCC 750; format: cell-based
Summary of the method: as §1

[13] = tested on: Candida albicans ATCC MYA-2876; format: cell-based
Summary of the method: as §1

[14] = tested on: Escherichia coli ATCC 25922; format: cell-based
Summary of the method: as §1

[15] = tested on: Klebsiella pneumoniae ATCC 700603; format: cell-based
Summary of the method: as §1

[16] = tested on: Staphylococcus aureus (NRS 384); details: NRS 384, 3 h
Experimental: Trypsin (250 U/mg, pH=8.0) and AMPs (LV-1 to LV-30) were mixed in a ratio of 1:10 (w/w) and added to a reaction buffer (0.2 M sodium phosphate, 1 mM CaCl2), pH 7.5), and then incubated at 37° C. for 3 h.

[17] = tested on: carbapenem-resistant Pseudomonas aeruginosa (CRPA); format: cell-based; details: carbapenem-resistant (CRPA)
Summary of the method: (§2)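 Peptides were serially diluted twofold following CLSI susceptibility standards, clinical resistant bacteria were exposed, and the MIC was recorded; five parallel repeats.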

[18] = tested on: Methicillin-resistant Staphylococcus aureus (MRSA); format: cell-based; details: Methicillin-resistant
Summary of the method: as §2

[19] = tested on: carbapenem-resistant Klebsiella pneumoniae (CRKP); format: cell-based; details: carbapenem-resistant (CRKP)
Summary of the method: as §2

[20] = tested on: carbapenem-resistant Escherichia coli (CREC); format: cell-based; details: carbapenem-resistant (CREC)
Summary of the method: as §2

[21] = tested on: vancomycin-resistant Enterococcus (VRE); format: cell-based
Summary of the method: as §2

[22] = tested on: Pseudomonas aeruginosa ATCC 27853; assay: Injectable formulations on mice infected with peritonitis; format: in vivo, ICR mice; details: 1 mg/kg via tail vein, twice a day for 3 days, n = 10; for Average survival times (Days): observed for 14 d
Summary of the method: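 ICR mice of both sexes (10 per group) infected intraperitoneally with 0.2 mL P. aeruginosa ATCC 27853 at 1×10^9 CFU/mL. Injectable formulations dosed by body weight via tail vein twice daily for 3 days; deaths and survival time recorded over 14 d.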

[23] = Serum stability assay (residual level by RP-HPLC); details: human

CC(=O)N[C@H](CCCNC(=N)N)C(=O)N[C@H](CCCCN)C(=O)N[C@H](CC(C)C)C(=O)N[C@H](CC(C)C)C(=O)N[C@H](Cc1ccc(Cl)c(Cl)c1)C(=O)N[C@H](CCCCN)C(=O)N[C@H](CC(C)C)C(=O)N[C@H](CCCCN)C(=O)N[C@H](Cc1ccc(Cl)c(Cl)c1)C(=O)N[C@H](CCCCN)C(=O)N[C@H](CCCNC(=N)N)C(N)=O [LV-8] (Ac-[dR][dK][dL][dL][dPhe(3,4-Cl2)][dK][dL][dK][dPhe(3,4-Cl2)][dK][dR]-NH2)
MIC Enterococcus ATCC 29212 [1]: 2 µg/mL (≈ 1.21 µM)
MIC Pseudomonas aeruginosa ATCC 27853 [2]: 2 µg/mL (≈ 1.21 µM)
MIC Corynebacterium ATCC 7715 [3]: 2 µg/mL (≈ 1.21 µM)
MIC Candida utilis ATCC 9950 [4]: 8 µg/mL (≈ 4.83 µM)
MIC Staphylococcus aureus ATCC 25923 [5]: 1 µg/mL (≈ 0.604 µM)
MIC Trichophyton ATCC MYA-4438 [6]: 8 µg/mL (≈ 4.83 µM)
MIC Candida glabrata ATCC 15126 [7]: 16 µg/mL (≈ 9.66 µM)
MIC Candida krusei ATCC 6258 [8]: 16 µg/mL (≈ 9.66 µM)
MIC Salmonella typhimurium ATCC 14028 [9]: 2 µg/mL (≈ 1.21 µM)
MIC Bacillus subtilis ATCC 6633 [10]: 2 µg/mL (≈ 1.21 µM)
MIC Serratia marcescens ATCC 29021 [11]: 2 µg/mL (≈ 1.21 µM)
MIC Candida tropicalis ATCC 750 [12]: 16 µg/mL (≈ 9.66 µM)
MIC Candida albicans ATCC MYA-2876 [13]: 16 µg/mL (≈ 9.66 µM)
MIC Escherichia coli ATCC 25922 [14]: 2 µg/mL (≈ 1.21 µM)
MIC Klebsiella pneumoniae ATCC 700603 [15]: 4 µg/mL (≈ 2.42 µM)
Trypsin MIC [16]: 1 µg/mL
MIC CRPA [17]: 8 µg/mL (≈ 4.83 µM)
MIC MRSA [18]: 4 µg/mL (≈ 2.42 µM)
MIC CRKP [19]: 2 µg/mL (≈ 1.21 µM)
MIC CREC [20]: 4 µg/mL (≈ 2.42 µM)
MIC VRE [21]: 8 µg/mL (≈ 4.83 µM)
Number of mice that died on each day after infection: day 1 [22]: 1 Mouse
Number of mice that died on each day after infection: day 2 [22]: 1 Mouse
Number of mice that died on each day after infection: day 3 [22]: 0 Mouse
Number of mice that died on each day after infection: day 4 [22]: 1 Mouse
Number of mice that died on each day after infection: day 5 [22]: 1 Mouse
Average survival times (Days) [22]: 9.6*** Days
remaining at 12 h, 0.91 mg/mL [23]: 97.6%

CC(=O)N[C@H](CCCNC(=N)N)C(=O)N[C@H](CCCCN)C(=O)N[C@H](CC(C)C)C(=O)N[C@H](CC(C)C)C(=O)N[C@H](Cc1ccc(C(F)(F)F)cc1)C(=O)N[C@H](CCCCN)C(=O)N[C@H](CC(C)C)C(=O)N[C@H](CCCCN)C(=O)N[C@H](Cc1ccc(C(F)(F)F)cc1)C(=O)N[C@H](CCCCN)C(=O)N[C@H](CCCNC(=N)N)C(N)=O [LV-9] (Ac-[dR][dK][dL][dL][dPhe(4-CF3)][dK][dL][dK][dPhe(4-CF3)][dK][dR]-NH2)
MIC Enterococcus ATCC 29212 [1]: 4 µg/mL (≈ 2.42 µM)
MIC Pseudomonas aeruginosa ATCC 27853 [2]: 2 µg/mL (≈ 1.21 µM)
MIC Corynebacterium ATCC 7715 [3]: 2 µg/mL (≈ 1.21 µM)
MIC Candida utilis ATCC 9950 [4]: 16 µg/mL (≈ 9.67 µM)
MIC Staphylococcus aureus ATCC 25923 [5]: 2 µg/mL (≈ 1.21 µM)
MIC Trichophyton ATCC MYA-4438 [6]: 16 µg/mL (≈ 9.67 µM)
MIC Candida glabrata ATCC 15126 [7]: 8 µg/mL (≈ 4.84 µM)
MIC Candida krusei ATCC 6258 [8]: 16 µg/mL (≈ 9.67 µM)
MIC Salmonella typhimurium ATCC 14028 [9]: 2 µg/mL (≈ 1.21 µM)
MIC Bacillus subtilis ATCC 6633 [10]: 8 µg/mL (≈ 4.84 µM)
MIC Serratia marcescens ATCC 29021 [11]: 4 µg/mL (≈ 2.42 µM)
MIC Candida tropicalis ATCC 750 [12]: 16 µg/mL (≈ 9.67 µM)
MIC Candida albicans ATCC MYA-2876 [13]: 8 µg/mL (≈ 4.84 µM)
MIC Escherichia coli ATCC 25922 [14]: 2 µg/mL (≈ 1.21 µM)
MIC Klebsiella pneumoniae ATCC 700603 [15]: 2 µg/mL (≈ 1.21 µM)
Trypsin MIC [16]: 1 µg/mL
MIC CRPA [17]: 4 µg/mL (≈ 2.42 µM)
MIC MRSA [18]: 2 µg/mL (≈ 1.21 µM)
MIC CRKP [19]: 8 µg/mL (≈ 4.84 µM)
MIC CREC [20]: 2 µg/mL (≈ 1.21 µM)
MIC VRE [21]: 4 µg/mL (≈ 2.42 µM)
Number of mice that died on each day after infection: day 1 [22]: 1 Mouse
Number of mice that died on each day after infection: day 2 [22]: 2 Mouse
Number of mice that died on each day after infection: day 3 [22]: 0 Mouse
Number of mice that died on each day after infection: day 4 [22]: 1 Mouse
Number of mice that died on each day after infection: day 5 [22]: 0 Mouse
Average survival times (Days) [22]: 9.3*** Days
remaining at 12 h, 0.91 mg/mL [23]: 97.3%

CC(=O)N[C@H](CCCCN)C(=O)N[C@H](CCCCN)C(=O)N[C@H](CC(C)C)C(=O)N[C@H](CC(C)C)C(=O)N[C@H](Cc1ccc(Br)cc1)C(=O)N[C@H](CCCNC(=N)N)C(=O)N[C@H](CC(C)C)C(=O)N[C@H](CCCCN)C(=O)N[C@H](Cc1ccc(Br)cc1)C(=O)N[C@H](CCCNC(=N)N)C(=O)N[C@H](CCCCN)C(N)=O [LV-10] (Ac-[dK][dK][dL][dL][dPhe(4-Br)][dR][dL][dK][dPhe(4-Br)][dR][dK]-NH2)
MIC Enterococcus ATCC 29212 [1]: 2 µg/mL (≈ 1.19 µM)
MIC Pseudomonas aeruginosa ATCC 27853 [2]: 2 µg/mL (≈ 1.19 µM)
MIC Corynebacterium ATCC 7715 [3]: 8 µg/mL (≈ 4.77 µM)
MIC Candida utilis ATCC 9950 [4]: 8 µg/mL (≈ 4.77 µM)
MIC Staphylococcus aureus ATCC 25923 [5]: 2 µg/mL (≈ 1.19 µM)
MIC Trichophyton ATCC MYA-4438 [6]: 8 µg/mL (≈ 4.77 µM)
MIC Candida glabrata ATCC 15126 [7]: 8 µg/mL (≈ 4.77 µM)
MIC Candida krusei ATCC 6258 [8]: 8 µg/mL (≈ 4.77 µM)
MIC Salmonella typhimurium ATCC 14028 [9]: 2 µg/mL (≈ 1.19 µM)
MIC Bacillus subtilis ATCC 6633 [10]: 2 µg/mL (≈ 1.19 µM)
MIC Serratia marcescens ATCC 29021 [11]: 4 µg/mL (≈ 2.39 µM)
MIC Candida tropicalis ATCC 750 [12]: 4 µg/mL (≈ 2.39 µM)
MIC Candida albicans ATCC MYA-2876 [13]: 8 µg/mL (≈ 4.77 µM)
MIC Escherichia coli ATCC 25922 [14]: 1 µg/mL (≈ 0.597 µM)
MIC Klebsiella pneumoniae ATCC 700603 [15]: 2 µg/mL (≈ 1.19 µM)
Trypsin MIC [16]: 1 µg/mL
MIC CRPA [17]: 2 µg/mL (≈ 1.19 µM)
MIC MRSA [18]: 4 µg/mL (≈ 2.39 µM)
MIC CRKP [19]: 2 µg/mL (≈ 1.19 µM)
MIC CREC [20]: 4 µg/mL (≈ 2.39 µM)
MIC VRE [21]: 8 µg/mL (≈ 4.77 µM)
Number of mice that died on each day after infection: day 1 [22]: 0 Mouse
Number of mice that died on each day after infection: day 2 [22]: 1 Mouse
Number of mice that died on each day after infection: day 3 [22]: 1 Mouse
Number of mice that died on each day after infection: day 4 [22]: 2 Mouse
Number of mice that died on each day after infection: day 5 [22]: 0 Mouse
Average survival times (Days) [22]: 9.7*** Days
remaining at 12 h, 0.91 mg/mL [23]: 98%
